Experiments:
[1] = 101 kPa, Liquid; for speed of sound: Linear variable-path acoustic interferometer
[2] = refractive index (Na D-line) (dimensionless); conditions: 101.33 kPa, Liquid
[3] = xn = mol fraction of the nth substance listed; conditions: 101 kPa, Liquid; for speed of sound: Linear variable-path acoustic interferometer
[4] = refractive index (Na D-line) (dimensionless); xn = mol fraction of the nth substance listed; conditions: 101 kPa, Liquid

CC(C)O [propan-2-ol]
Conditions	mass density, 298.15 K [kg/m3]	mass density, 303.15 K [kg/m3]	mass density, 308.15 K [kg/m3]	refractive index, 298.15 K	refractive index, 303.15 K	refractive index, 308.15 K	speed of sound, 298.15 K [m/s]	viscosity, 298.15 K [mPa·s]	viscosity, 303.15 K [mPa·s]	viscosity, 308.15 K [mPa·s]
[1]	781.05	776.79	772.43	–	–	–	1144	2.076	1.786	1.532
[2]	–	–	–	1.3765	1.3741	1.3716	–	–	–	–

CC(C)CCO [3-methylbutan-1-ol]
Conditions	mass density, 298.15 K [kg/m3]	mass density, 303.15 K [kg/m3]	mass density, 308.15 K [kg/m3]	refractive index, 298.15 K	refractive index, 303.15 K	refractive index, 308.15 K	speed of sound, 298.15 K [m/s]	viscosity, 298.15 K [mPa·s]	viscosity, 303.15 K [mPa·s]	viscosity, 308.15 K [mPa·s]
[1]	820.17	816.28	812.34	–	–	–	1259	2.779	2.258	1.844
[2]	–	–	–	1.4056	1.4034	1.4013	–	–	–	–

CCCCO [butan-1-ol]
Conditions	mass density, 298.15 K [kg/m3]	mass density, 303.15 K [kg/m3]	mass density, 308.15 K [kg/m3]	refractive index, 298.15 K	refractive index, 303.15 K	refractive index, 308.15 K	speed of sound, 298.15 K [m/s]	viscosity, 298.15 K [mPa·s]	viscosity, 303.15 K [mPa·s]	viscosity, 308.15 K [mPa·s]
[1]	808.49	804.6	800.67	–	–	–	1268	2.587	2.254	1.988
[2]	–	–	–	1.3983	1.3959	1.394	–	–	–	–

CC1CCCCC1 [methylcyclohexane]
Conditions	mass density, 298.15 K [kg/m3]	mass density, 303.15 K [kg/m3]	mass density, 308.15 K [kg/m3]	refractive index, 298.15 K	refractive index, 303.15 K	refractive index, 308.15 K	speed of sound, 298.15 K [m/s]	viscosity, 298.15 K [mPa·s]	viscosity, 303.15 K [mPa·s]	viscosity, 308.15 K [mPa·s]
[1]	764.99	760.66	756.3	–	–	–	1217	0.6757	0.631	0.5902
[2]	–	–	–	1.4217	1.4192	1.4163	–	–	–	–

CCCO [propan-1-ol]
Conditions	mass density, 298.15 K [kg/m3]	mass density, 303.15 K [kg/m3]	mass density, 308.15 K [kg/m3]	refractive index, 298.15 K	refractive index, 303.15 K	refractive index, 308.15 K	speed of sound, 298.15 K [m/s]	viscosity, 298.15 K [mPa·s]	viscosity, 303.15 K [mPa·s]	viscosity, 308.15 K [mPa·s]
[1]	809.65	805.5	801.32	–	–	–	1206	2.077	1.809	1.595
[2]	–	–	–	1.384	1.3819	1.38	–	–	–	–

CC1CCCCC1 [methylcyclohexane] + CCO
Conditions	mass density, 298.15 K [kg/m3]	mass density, 303.15 K [kg/m3]	mass density, 308.15 K [kg/m3]	refractive index, 298.15 K	refractive index, 303.15 K	refractive index, 308.15 K	speed of sound, 298.15 K [m/s]	viscosity, 298.15 K [mPa·s]	viscosity, 303.15 K [mPa·s]	viscosity, 308.15 K [mPa·s]
[3], x1 = 0.1023	779.57	775.21	770.8	–	–	–	1167	0.9923	0.9068	0.8212
[3], x1 = 0.2031	775.92	771.51	767.07	–	–	–	1172	0.9225	0.8458	0.7691
[3], x1 = 0.304	772.55	768.07	763.6	–	–	–	1178	0.8558	0.788	0.7202
[3], x1 = 0.405	770.25	765.74	761.26	–	–	–	1183	0.808	0.7464	0.6848
[3], x1 = 0.5061	768.4	763.87	759.36	–	–	–	1189	0.7632	0.7079	0.6525
[3], x1 = 0.6029	767.13	762.62	758.09	–	–	–	1195	0.7293	0.677	0.6248
[3], x1 = 0.6998	766.01	761.51	756.97	–	–	–	1200	0.6984	0.6477	0.5971
[3], x1 = 0.8016	765.34	760.87	756.37	–	–	–	1206	0.6857	0.6392	0.5927
[3], x1 = 0.9034	764.79	760.27	755.77	–	–	–	1212	0.6762	0.6323	0.5884
[3], x1 = 1	764.99	760.66	756.3	–	–	–	1217	0.6757	0.631	0.5902
[4], x1 = 0.1023	–	–	–	1.371	1.3686	1.3662	–	–	–	–
[4], x1 = 0.2031	–	–	–	1.3796	1.3764	1.3744	–	–	–	–
[4], x1 = 0.304	–	–	–	1.3881	1.3853	1.3825	–	–	–	–
[4], x1 = 0.405	–	–	–	1.3949	1.3921	1.3893	–	–	–	–
[4], x1 = 0.5061	–	–	–	1.4017	1.3989	1.3961	–	–	–	–
[4], x1 = 0.6029	–	–	–	1.4068	1.4038	1.4008	–	–	–	–
[4], x1 = 0.6998	–	–	–	1.412	1.4087	1.4054	–	–	–	–
[4], x1 = 0.8016	–	–	–	1.417	1.4135	1.41	–	–	–	–
[4], x1 = 0.9034	–	–	–	1.4192	1.4169	1.4146	–	–	–	–
[4], x1 = 1	–	–	–	1.4217	1.4192	1.4163	–	–	–	–

CCCCO [butan-1-ol] + CC1CCCCC1
x2 = 0
Conditions	mass density, 298.15 K [kg/m3]	mass density, 303.15 K [kg/m3]	mass density, 308.15 K [kg/m3]	refractive index, 298.15 K	refractive index, 303.15 K	refractive index, 308.15 K	speed of sound, 298.15 K [m/s]	viscosity, 298.15 K [mPa·s]	viscosity, 303.15 K [mPa·s]	viscosity, 308.15 K [mPa·s]
[3]	808.49	804.6	800.67	–	–	–	1268	2.587	2.254	1.988
[4]	–	–	–	1.3983	1.3959	1.394	–	–	–	–

CC(C)CO [2-methyl-1-propanol]
Conditions	mass density, 298.15 K [kg/m3]	mass density, 303.15 K [kg/m3]	mass density, 308.15 K [kg/m3]	refractive index, 298.15 K	refractive index, 303.15 K	refractive index, 308.15 K	speed of sound, 298.15 K [m/s]	viscosity, 298.15 K [mPa·s]	viscosity, 303.15 K [mPa·s]	viscosity, 308.15 K [mPa·s]
[1]	809.31	805.23	801.11	–	–	–	1170	3.097	2.635	2.249
[2]	–	–	–	1.3932	1.3917	1.3896	–	–	–	–

CCO [ethanol]
Conditions	mass density, 298.15 K [kg/m3]	mass density, 303.15 K [kg/m3]	mass density, 308.15 K [kg/m3]	refractive index, 298.15 K	refractive index, 303.15 K	refractive index, 308.15 K	speed of sound, 298.15 K [m/s]	viscosity, 298.15 K [mPa·s]	viscosity, 303.15 K [mPa·s]	viscosity, 308.15 K [mPa·s]
[1]	785.66	781.34	776.99	–	–	–	1161	1.083	0.985	0.8954
[2]	–	–	–	1.3608	1.3589	1.3563	–	–	–	–

CC1CCCCC1 [methylcyclohexane] + CCCO
Conditions	mass density, 298.15 K [kg/m3]	mass density, 303.15 K [kg/m3]	mass density, 308.15 K [kg/m3]	refractive index, 298.15 K	refractive index, 303.15 K	refractive index, 308.15 K	speed of sound, 298.15 K [m/s]	viscosity, 298.15 K [mPa·s]	viscosity, 303.15 K [mPa·s]	viscosity, 308.15 K [mPa·s]
[3], x1 = 0.1008	801.22	796.96	792.71	–	–	–	1207	1.729	1.536	1.343
[3], x1 = 0.2027	794.2	789.87	785.57	–	–	–	1208	1.471	1.317	1.162
[3], x1 = 0.3047	788.08	783.7	779.32	–	–	–	1209	1.26	1.136	1.013
[3], x1 = 0.4039	782.97	778.55	774.13	–	–	–	1210	1.102	0.9975	0.8926
[3], x1 = 0.5031	778.56	774.16	769.74	–	–	–	1212	0.9688	0.8863	0.8037
[3], x1 = 0.6008	774.91	770.45	765.97	–	–	–	1213	0.8839	0.813	0.742
[3], x1 = 0.6985	771.66	767.2	762.69	–	–	–	1214	0.7998	0.7403	0.6808
[3], x1 = 0.799	768.83	764.32	759.8	–	–	–	1215	0.7511	0.6984	0.6457
[3], x1 = 0.8995	766.39	761.95	757.5	–	–	–	1216	0.7028	0.6568	0.6107
[3], x1 = 1	764.99	760.66	756.3	–	–	–	1217	0.6757	0.631	0.5902
[4], x1 = 0.1008	–	–	–	1.3888	1.3865	1.3841	–	–	–	–
[4], x1 = 0.2027	–	–	–	1.3934	1.391	1.3886	–	–	–	–
[4], x1 = 0.3047	–	–	–	1.3979	1.3955	1.3932	–	–	–	–
[4], x1 = 0.4039	–	–	–	1.4016	1.3994	1.3971	–	–	–	–
[4], x1 = 0.5031	–	–	–	1.4053	1.4032	1.4011	–	–	–	–
[4], x1 = 0.6008	–	–	–	1.409	1.4066	1.4043	–	–	–	–
[4], x1 = 0.6985	–	–	–	1.4127	1.4101	1.4075	–	–	–	–
[4], x1 = 0.799	–	–	–	1.4159	1.4133	1.4106	–	–	–	–
[4], x1 = 0.8995	–	–	–	1.4191	1.4164	1.4137	–	–	–	–
[4], x1 = 1	–	–	–	1.4217	1.4192	1.4163	–	–	–	–

Reference: the NIST ThermoML archive (doi:10.1016/j.jct.2005.06.011)
